Measured values reported in PubChem BioAssay AID2060510 (Molecular Pharmacology Branch, DTP, NCI, 2025).

Test system: 439559-082-T-J2-PDC spheroids viability
Test: Anticancer human tumor 439559-082-T-J2-PDC patient-derived colon adenocarcinoma cell line growth inhibition [GQUAD]
Conditions: for IC50: curve of first compound; for viability, T/C: stronger effect = lower value
Summary of the method: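 Viability of tumor cells grown as complex spheroids with endothelial and stromal cells, exposed to drug combinations. Top concentration at or near clinical Cmax (else 10 microM), diluted in half-log increments.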

[1] = second compound 0.0316 µM, first compound 0.0316 µM
[2] = second compound 0.0316 µM, first compound 0.316 µM
[3] = second compound 0.1 µM, first compound 0.0316 µM
[4] = second compound 0.1 µM, first compound 0.316 µM
[5] = second compound 0.316 µM, first compound 0.0316 µM
[6] = second compound 0.316 µM, first compound 0.316 µM
[7] = second compound 1 µM, first compound 0.0316 µM
[8] = second compound 1 µM, first compound 0.316 µM
[9] = second compound 3.16 µM, first compound 0.0316 µM
[10] = second compound 3.16 µM, first compound 0.316 µM
[11] = second compound 10 µM, first compound 0.0316 µM
[12] = second compound 10 µM, first compound 0.316 µM
[13] = second compound 0.0316 µM, first compound 0.1 µM
[14] = second compound 0.0316 µM, first compound 1 µM
[15] = second compound 0.0316 µM, first compound 3.16 µM
[16] = second compound 0.0316 µM, first compound 10 µM
[17] = second compound 0.1 µM, first compound 0.1 µM
[18] = second compound 0.1 µM, first compound 1 µM
[19] = second compound 0.1 µM, first compound 3.16 µM
[20] = second compound 0.1 µM, first compound 10 µM
[21] = second compound 0.316 µM, first compound 0.1 µM
[22] = second compound 0.316 µM, first compound 1 µM
[23] = second compound 0.316 µM, first compound 3.16 µM
[24] = second compound 0.316 µM, first compound 10 µM
[25] = second compound 1 µM, first compound 0.1 µM
[26] = second compound 1 µM, first compound 1 µM
[27] = second compound 1 µM, first compound 3.16 µM
[28] = second compound 1 µM, first compound 10 µM
[29] = second compound 3.16 µM, first compound 0.1 µM
[30] = second compound 3.16 µM, first compound 1 µM
[31] = second compound 3.16 µM, first compound 3.16 µM
[32] = second compound 3.16 µM, first compound 10 µM
[33] = second compound 10 µM, first compound 0.1 µM
[34] = second compound 10 µM, first compound 1 µM
[35] = second compound 10 µM, first compound 3.16 µM
[36] = second compound 10 µM, first compound 10 µM
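Further: spheroids exposed to the agents for 7 days before readout.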
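Wherever viability, T/C is given: percent of luminescence signal in DMSO vehicle wells taken as 100% viability.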

For `Cn1ncnc1[C@H]1c2n[nH]c(=O)c3cc(F)cc(c23)N[C@@H]1c1ccc(F)cc1` + CN(C)c1ccc(Nc2c3ccc(NC(=O)CCN4CCCC4)cc3nc3cc(NC(=O)CCN4CCCC4)ccc23)cc1, the IC50 (second compound 0.0316 µM) was > 0.316 µM, the IC50 (second compound 0.1 µM) was > 0.316 µM and the IC50 (second compound 0.316 µM) was > 0.316 µM. For the same compound, the IC50 (second compound 1 µM) was > 0.316 µM, the IC50 (second compound 3.16 µM) was > 0.316 µM and the IC50 (second compound 10 µM) was > 0.316 µM. The viability, T/C (second compound 0.0316 µM, first compound 0.000999 µM) was 94.6%, the viability, T/C (second compound 0.0316 µM, first compound 0.00316 µM) was 97% and the viability, T/C (second compound 0.0316 µM, first compound 0.00999 µM) was 104%. The viability, T/C [1] was 96.3%, the viability, T/C (second compound 0.0316 µM, first compound 0.0999 µM) was 95.9% and the viability, T/C [2] was 94.4%. For the same compound, the viability, T/C (second compound 0.1 µM, first compound 0.000999 µM) was 99.6%, the viability, T/C (second compound 0.1 µM, first compound 0.00316 µM) was 98.6% and the viability, T/C (second compound 0.1 µM, first compound 0.00999 µM) was 90.7%. For the same compound, the viability, T/C [3] was 108%, the viability, T/C (second compound 0.1 µM, first compound 0.0999 µM) was 94.4% and the viability, T/C [4] was 85.3%. The viability, T/C (second compound 0.316 µM, first compound 0.000999 µM) was 99.6%, the viability, T/C (second compound 0.316 µM, first compound 0.00316 µM) was 106% and the viability, T/C (second compound 0.316 µM, first compound 0.00999 µM) was 97%. For the same compound, the viability, T/C [5] was 94.4%, the viability, T/C (second compound 0.316 µM, first compound 0.0999 µM) was 93.8% and the viability, T/C [6] was 82.5%. The viability, T/C (second compound 1 µM, first compound 0.000999 µM) was 96.8%, the viability, T/C (second compound 1 µM, first compound 0.00316 µM) was 91.7% and the viability, T/C (second compound 1 µM, first compound 0.00999 µM) was 96%. The viability, T/C [7] was 111%, the viability, T/C (second compound 1 µM, first compound 0.0999 µM) was 96.8% and the viability, T/C [8] was 92.5%. For the same compound, the viability, T/C (second compound 3.16 µM, first compound 0.000999 µM) was 101%, the viability, T/C (second compound 3.16 µM, first compound 0.00316 µM) was 102% and the viability, T/C (second compound 3.16 µM, first compound 0.00999 µM) was 89.6%. For the same compound, the viability, T/C [9] was 99.2%, the viability, T/C (second compound 3.16 µM, first compound 0.0999 µM) was 98.1% and the viability, T/C [10] was 85.5%. It also gave a viability, T/C (second compound 10 µM, first compound 0.000999 µM) of 104%, a viability, T/C (second compound 10 µM, first compound 0.00316 µM) of 77.2% and a viability, T/C (second compound 10 µM, first compound 0.00999 µM) of 91.5%. It also gave a viability, T/C [11] of 85.8%, a viability, T/C (second compound 10 µM, first compound 0.0999 µM) of 99.6% and a viability, T/C [12] of 85%.
In the case of `COc1cc(C2c3cc4c(cc3C(OC3OC5COC(C)OC5C(O)C3O)C3COC(=O)C23)OCO4)cc(OC)c1O` (stereo unspecified) + Cc1cnc(CNC(=O)c2c(=O)c3ccc(N4CCCN(C)CC4)nc3n3c2sc2ccccc23)cn1, the IC50 (second compound 0.0316 µM) is reported as > 10 µM, the IC50 (second compound 0.1 µM) is reported as > 10 µM and the IC50 (second compound 0.316 µM) is reported as > 10 µM. For the same compound, the IC50 (second compound 1 µM) was > 10 µM, the IC50 (second compound 3.16 µM) was > 10 µM and the IC50 (second compound 10 µM) was > 10 µM. The viability, T/C [1] was 92.8%, the viability, T/C [13] was 99.9% and the viability, T/C [2] was 93.4%. It also gave a viability, T/C [14] of 85.5%, a viability, T/C [15] of 84.1% and a viability, T/C [16] of 60.3%. It also gave a viability, T/C [3] of 86.2%, a viability, T/C [17] of 83.7% and a viability, T/C [4] of 85.1%. The viability, T/C [18] was 76.5%, the viability, T/C [19] was 80.5% and the viability, T/C [20] was 59.9%. The viability, T/C [5] was 94.4%, the viability, T/C [21] was 86.5% and the viability, T/C [6] was 81.4%. It also gave a viability, T/C [22] of 75.2%, a viability, T/C [23] of 70.2% and a viability, T/C [24] of 56.3%. It also gave a viability, T/C [7] of 74.8%, a viability, T/C [25] of 78.9% and a viability, T/C [8] of 70.6%. For the same compound, the viability, T/C [26] was 70%, the viability, T/C [27] was 64.8% and the viability, T/C [28] was 55.1%. For the same compound, the viability, T/C [9] was 63.6%, the viability, T/C [29] was 73.3% and the viability, T/C [10] was 66%. The viability, T/C [30] was 66.5%, the viability, T/C [31] was 66.2% and the viability, T/C [32] was 56.3%. The viability, T/C [11] was 72.3%, the viability, T/C [33] was 63.6% and the viability, T/C [12] was 62.5%. The viability, T/C [34] was 60.8%, the viability, T/C [35] was 59.8% and the viability, T/C [36] was 49.8%.
With `C#Cc1c(F)ccc2cc(O)cc(-c3ncc4c(N5CC6CCC(C5)N6)nc(OCC56CCCN5CC(F)C6)nc4c3F)c12` (stereo unspecified) + Cc1cnc(CNC(=O)c2c(=O)c3ccc(N4CCCN(C)CC4)nc3n3c2sc2ccccc23)cn1 the IC50 (second compound 0.0316 µM) was 9.53 µM, the IC50 (second compound 0.1 µM) was > 10 µM and the IC50 (second compound 0.316 µM) was 6.48 µM. For the same compound, the IC50 (second compound 1 µM) was 3.09 µM, the IC50 (second compound 3.16 µM) was 1.91 µM and the IC50 (second compound 10 µM) was 0.665 µM. It also gave a viability, T/C [1] of 92.5%, a viability, T/C [13] of 81.9% and a viability, T/C [2] of 76%. The viability, T/C [14] was 62.7%, the viability, T/C [15] was 62.6% and the viability, T/C [16] was 47.5%. It also gave a viability, T/C [3] of 92.6%, a viability, T/C [17] of 80.1% and a viability, T/C [4] of 60.1%. The viability, T/C [18] was 61.2%, the viability, T/C [19] was 57.2% and the viability, T/C [20] was 53%. The viability, T/C [5] was 81.2%, the viability, T/C [21] was 68.8% and the viability, T/C [6] was 68.9%. For the same compound, the viability, T/C [22] was 57.9%, the viability, T/C [23] was 58.6% and the viability, T/C [24] was 45.2%. For the same compound, the viability, T/C [7] was 86.2%, the viability, T/C [25] was 66.9% and the viability, T/C [8] was 65.3%. The viability, T/C [26] was 56.1%, the viability, T/C [27] was 49.5% and the viability, T/C [28] was 45.8%. The viability, T/C [9] was 71.3%, the viability, T/C [29] was 73.1% and the viability, T/C [10] was 56.7%. It also gave a viability, T/C [30] of 55.8%, a viability, T/C [31] of 47.8% and a viability, T/C [32] of 36.8%. The viability, T/C [11] was 59.1%, the viability, T/C [33] was 55.9% and the viability, T/C [12] was 49.4%. It also gave a viability, T/C [34] of 51.3%, a viability, T/C [35] of 42.1% and a viability, T/C [36] of 33.7%.
